Test results as given in PubChem BioAssay AID588780 (Sanford-Burnham Center for Chemical Genomics, 2011).
The source made the active and inactive calls.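 The calls were made as follows: active = compounds whose fitted half-maximal concentration in the cell-protection dose series is at or below a set limit; inactive = the rest.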

Tested on: H9c2 cardiomyocytes, 2-deoxyglucose stress, ATP luminescence, 2 h
Experiment: protection of cardiomyocytes from 2-deoxyglucose injury, dose response, cell-based, 2-deoxyglucose stress, uHTS hits (AID 588780)

SMILES	IC50
COc1ccc2[nH]c(=O)c(CN(Cc3ccco3)C(c3nnnn3Cc3ccccc3)C(C)C)cc2c1 (stereo not drawn)	> 79 µM (inactive)
O=C(CCc1nc2ccccc2c(=O)[nH]1)N1CCN(S(=O)(=O)c2ccccc2Br)CC1	> 79 µM (inactive)
COc1ccc(C(=O)COC(=O)c2ccc([N+](=O)[O-])s2)cc1OC	> 79 µM (inactive)
COc1cccc(N2CC(C(=O)NCc3n[nH]c(=O)c4ccccc34)CC2=O)c1 (stereo not drawn)	> 79 µM (inactive)
O=C(Nc1ccccc1C(=O)Nc1ccccc1C(=O)NCc1ccco1)c1ccco1	8.02 µM
Cn1c(=O)c2c(nc(Br)n2Cc2ccc3ccccc3c2)n(C)c1=O	> 79 µM (inactive)
O=C(COC(=O)Cc1n[nH]c(=O)c2ccccc12)Nc1ccc(Cl)cn1	> 79 µM (inactive)
COc1ccccc1-c1cc(NC(C)=O)c2ncc(-c3cccc(C(C)=O)c3)n2c1	13.5 µM
O=C1NC(c2cccs2)Nc2ccccc21 (stereo not drawn)	> 79 µM (inactive)
O=C(CCS(=O)(=O)c1ccccc1)Nc1nc(-c2ccccn2)cs1	31.3 µM (inactive)
CCCCCCn1c(C)nc2c(c1=O)c1nc3ccccc3nc1n2/N=C/c1ccco1	> 79 µM (inactive)
Nc1c(C(=O)NC2CCCC2)c2nc3ccccc3nc2n1N	> 79 µM (inactive)
Cn1c2ccc(F)cc2c2nnc(NN)nc21	> 79 µM (inactive)
Cc1ccc(C)c2[nH]c(=O)c(CN(Cc3ccc4c(c3)OCO4)Cc3nnnn3Cc3ccco3)cc12	13.1 µM
Cc1nc(SCC(=O)NCc2ccc(F)cc2)c2c(=O)n(C)c(=O)n(C)c2n1	> 79 µM (inactive)
O=[N+]([O-])c1ccc(Nc2nc(N/N=C/c3cccc(F)c3)nc(N3CCCC3)n2)cc1	> 79 µM (inactive)
O=C(c1cc(=O)[nH]c2ccccc12)N1CCN(S(=O)(=O)c2ccc(Cl)cc2)CC1	> 79 µM (inactive)
O=C(CN1C(=O)CCC1=O)Nc1nc(-c2ccccn2)cs1	43.2 µM (inactive)
COc1cc(/C=N/NC(=O)c2cccnc2)ccc1OS(=O)(=O)c1ccc(F)cc1	14.1 µM
O=C(Cn1[nH]c(=O)c2ccccc2c1=O)N1CCN(S(=O)(=O)c2ccc(Cl)cc2)CC1	> 79 µM (inactive)
COc1cc(-c2nnc(-c3cc(-c4ccccc4)nc4ccccc34)o2)cc(OC)c1OC	5.22 µM
COc1ccc(CCNC(=O)C(=O)NCC2CCCN2S(=O)(=O)c2ccccc2)cc1OC (stereo not drawn)	> 79 µM (inactive)
CC1(C)CC2CC(C)(CN2C(=O)COC(=O)c2n[nH]c(=O)c3ccccc23)C1 (stereo not drawn)	> 79 µM (inactive)

SMILES	IC50
COc1ccc2[nH]c(=O)c(CN(Cc3cccnc3)S(=O)(=O)c3ccccc3F)cc2c1	> 79 µM (inactive)
Cc1ccc(C)c(NC(=O)C(Sc2nc3ccccc3c(=O)n2CC(C)C)c2ccccc2)c1 (stereo not drawn)	> 79 µM (inactive)
CN(CC(=O)Nc1cccc(F)c1)C(=O)CCCc1nc2ccccc2c(=O)[nH]1	> 79 µM (inactive)
NC(=O)c1nsc(C(=O)N(c2ccccc2)C(C(=O)NCc2ccc(F)cc2)c2ccc(O)cc2)c1N (stereo not drawn)	> 79 µM (inactive)
O=C(O)c1ccc2c(c1)S(=O)(=O)c1cc(N3CCN(c4cnccn4)CC3)ccc1C2=O	> 79 µM (inactive)
CCn1c(SCC(=O)N2CCN(c3ccccc3)CC2)nc2c(c1=O)SC(C)C2 (stereo not drawn)	> 79 µM (inactive)
CCCN(CCC)S(=O)(=O)c1ccc(C(=O)Nc2nnc(-c3cc(OC)cc(OC)c3)o2)cc1	9.06 µM
CC(=O)Nc1ccc(NS(=O)(=O)c2cc(-c3n[nH]c(=O)c4ccccc34)ccc2C)cc1	> 79 µM (inactive)
COc1ccc(OC)c(N(CC(=O)Nc2cccnc2)S(=O)(=O)c2ccc(OC)c(OC)c2)c1	42.7 µM (inactive)
O=C(Cc1n[nH]c(=O)c2ccccc12)NCc1ccc(Cl)cc1	> 79 µM (inactive)
CC(=O)c1ccc(N2CCN(C(=O)C3CCCN(c4ncnc5c4nc4n5CCCCC4)C3)CC2)cc1 (stereo not drawn)	17.5 µM
COc1ccc(/C=N\NC(=O)c2c(C)nc3ccc(Br)cn23)cc1	> 79 µM (inactive)
COCCCNC(=O)/C(C#N)=C1\N=C(NC(=O)c2cccs2)c2ccccc21	> 79 µM (inactive)
CN(C)CCCNc1ccc(-c2n[nH]c(=O)c3ccccc23)cc1[N+](=O)[O-]	> 79 µM (inactive)
CCC(=O)Oc1ccc2c(C)cc(=O)oc2c1C	> 79 µM (inactive)
Brc1ccc(CSc2ccc3nnc(-c4cccnc4)n3n2)cc1	> 79 µM (inactive)
COc1ccc2[nH]c(=O)c(CN(c3ccccc3OC)S(=O)(=O)c3ccccc3)cc2c1	15.1 µM
O=C(Nc1cccc(N=Cc2cc(Cl)cc(Br)c2O)c1)c1ccco1	26.5 µM
Cc1ccc(N2C(=O)CS/C2=C(\C(Cl)=C(Cl)Cl)[N+](=O)[O-])cc1	> 79 µM (inactive)
O=C(CN1C(=O)C2CC=CCC2C1=O)Nc1nc(-c2ccc(F)c(F)c2)cs1 (stereo not drawn)	> 79 µM (inactive)
CC(=O)Nc1cc(-c2ccc(C(=O)N3CCOCC3)cc2)cn2c(-c3ccc(C(C)=O)cc3)cnc12	25.3 µM
O=c1[nH]c2cccnc2c2ccsc12	> 79 µM (inactive)
O=c1c(O)c(-c2cccs2)oc2ccc(Cl)cc12	20.6 µM

SMILES	IC50
O=C(COc1cccc2c1CCNC2=O)Nc1ccc(Cl)cc1	> 79 µM (inactive)
Cc1ccc(C(=O)Nc2nc(-c3ccccn3)cs2)s1	> 79 µM (inactive)
O=C(Nc1nnc(C2CC2)s1)c1cc(-c2ccccc2)nn1-c1ccccc1	> 79 µM (inactive)
O=C(NCC1CCCO1)C(c1ccc(F)cc1)N(C(=O)Cn1nnc(-c2ccc(F)cc2)n1)c1cccc(O)c1 (stereo not drawn)	13.1 µM
COc1cc(/C=C(\C#N)C(=O)Nc2ccccc2F)ccc1OCCN1CCOCC1	25.9 µM
O=C1COc2ccc(-c3n[nH]c(=O)c4ccccc34)cc2N1	> 79 µM (inactive)
COc1ccc(-n2c(/C=C/c3ccc(O)cc3)nc3ccccc3c2=O)cc1	15.8 µM
COc1ccc(NC(=O)c2cc(-c3ccccn3)nc3ccccc23)cc1S(=O)(=O)N(C)C	> 79 µM (inactive)
CCOc1ccc(NC(=O)c2cc3c(C)nc4ccccc4c3o2)cc1	17.1 µM
CC(C)n1nc(C(=O)OCC(=O)c2c[nH]c3ccccc23)c2ccccc2c1=O	> 79 µM (inactive)
O=C(NCc1ccco1)c1cc(-c2cccnc2)nc2ccc(Cl)cc12	> 79 µM (inactive)
Cc1cc(N)n(-c2nc(-c3cccnc3)nc3ccccc23)n1	19.8 µM
CCOC(=O)Cc1n[nH]c(=O)c2ccccc12	> 79 µM (inactive)
Cc1ccccc1NC(=O)COc1cccc2c1CCNC2=O	> 79 µM (inactive)
CCOC(=O)C1CCCN(C(=O)CCC(=O)Nc2ccc3nc(N4CCOCC4)cc(C)c3c2)C1 (stereo not drawn)	11 µM
O=C(CN1C(=O)C2CC=CCC2C1=O)Nc1nc(-c2ccc(F)cc2)cs1 (stereo not drawn)	10.8 µM
Cc1c(C(=O)Nc2ccc3nc(N4CCOCC4)sc3c2)oc2ccccc12	> 79 µM (inactive)
O=C(Cc1n[nH]c(=O)c2ccccc12)NCc1ccccn1	> 79 µM (inactive)
COc1ccccc1NC(=O)COc1ccc(/C=N/NC(=O)c2cccnc2)cc1	14.8 µM
COc1ccc2[nH]c(=O)c(CN(CC3CCCO3)S(=O)(=O)c3ccccc3F)cc2c1 (stereo not drawn)	15.9 µM
COc1ccc(-n2cc(-c3ccccc3)c3c(N4CCOCC4)ncnc32)cc1	> 79 µM (inactive)
Cc1ccc(C(C)C)c(OCC(=O)NNC(=O)Cn2[nH]c(=O)c3ccccc3c2=O)c1	75.1 µM (inactive)
